Measurements: patent publication US20240246963A1, “BIFUNCTIONAL COMPOUNDS AND PHARMACEUTICAL USES THEREOF” (RISEN (SUZHOU) PHARMA TECH CO., LTD., priority 2022, published 2024)

Key:
[1] = tested on: NCI-H727 cells (G12V); assay: Cell proliferation study (Cell Titer Glo, 72 hours), NCI-H727; assay type: cell-based; details: Homo sapiens
Procedure: (§1) Aspc-1(Cobioer, CBP60546), GP2D(Cobioer, CBP60683), Mia paca2 (Cobioer, CBP60136), NCI-H358 (Cobioer, CBP60544), H727 (Cobioer, CBP60182), MKN-1 (Cobioer, CBP60486), and PSN1 (Cobioer, CBP61215) cells in exponential growth phase were seeded into a 96-well plate (Greiner, 655090) at density of 3E3/well. Cells were cultured overnight at 37° C. with 5% CO2. On the next day, cells were treated with compound at various concentrations for 72 hours in 37° C., 5% CO2 incubator (final DMSO concentration was 0.1%). After treatment, 100 μL Cell Tier Glo (Promega, G7573) were added to every well on the cell plate and incubated at room temperature (RT) for 10 minutes. Cell growth status was measured with Cell Tier Glo (Promega, G7573) following manufacturer's directions. Inhibition level was calculated according to the following formula: […]
(§2) where the “Maximum Signal” are signal of wells containing DMSO without compound; the “Minimum Signal” are signal of wells recorded at Day 0 prior to commencement of the experiment; and the “Test compound signal” are signal of wells containing compound at established concentrations.
(§3) The inhibition curve was obtained with GraphPad 7.0 software using four-parameter equation.

[2] = biological target: T1, RAS G12D protein (Homo sapiens, UniProt P01116, G12D); assay: Protein degradation study (western blot) in Aspc-1 cells; assay type: cell-based; details: for DC50: half-maximum degradation concentration on G12D in Aspc-1 cells; for percent protein degradation at 0.005 µM: 0.005 μM compound; for percent protein degradation at 0.05 µM: 0.05 μM compound; for Dmax: ASPC1
T1 construct: host or cells: Aspc-1 (AsPC-1) cells
Procedure: Aspc-1 (Cobioer, CBP60546) cells in exponential growth phase were inoculated on a 6-well cell culture plate (Corning, 3516) at density of 1E6/well; and cells in the plate were cultured in a 37° C. incubator containing 5%-carbon dioxide. The next day, test compounds were dissolved in DMSO (Sigma, RNBF5902) for the preparation of a 10-mM concentration stock solution. The stock solution was diluted with complete medium (RPMI-1640 supplemented with 10% fetal bovine serum, 1% penicillin-streptomycin), yielding working solutions of various concentrations. The plate, after the addition of compounds, was placed in a 5% carbon dioxide incubator, and incubated at 37° C. for 24 hours (final DMSO concentration was 0.1%). The plate was then removed from the incubator, and the cells were washed twice with precooled PBS (Gibco, 14190250), followed by addition of 80 μL RIPA (CST, 9806S) lysis buffer (containing protease inhibitor (Invitrogen™, AM2696)) to each well. The adherent cells were scraped off with a cell scraper, and the cell lysate was transferred to a 1.5 mL centrifuge tube followed with a 30-minute incubation on ice. The lysate was then clarified with centrifugation at 12000 rpm for 10 min at 4° C. The supernatant was transferred into a new 1.5 mL centrifuge tube, and protein concentration was measured with BCA protein detection kit (Thermo Fisher, 23225). G12D protein level was assessed by western blot. A mixture of cell lysate (40 μL) and loading buffer (10 μL, 5×SDS (Beyotime, P0015L)) was denatured in a water-bath at 95° C. for 10 min. The denatured protein sample, at 30 μg/well, was loaded into a corresponding well of a 4-20% Bis-Tris gel (Kingsley, M00656). Protein samples were initially electrophoresed at 80 V for 30 minutes, followed by 120 V for 40 minutes, until the bromophenol blue strip ran to an appropriate position. After electrophoresis, iBlot2 (Life Technologies, IB21001) was used to transfer the separated samples onto PVDF film. The PVDF membrane was washed with double-distilled water and then blocked in TBST (Thermo Scientific, 28360) buffer containing 5% non-fat milk, for 2 hours. Blocked membrane was rinsed with tris-buffered saline tween-2 (Thermo Scientific, 28360, TBST) three times, 10 minutes each. Membrane was then incubated with 1:1000 diluted RAS Gi2D primary antibody (CST, cat #14429S) overnight at 4° C. Membrane was rinsed in a way described previously followed by 1 hour incubation of secondary antibody at room temperature. After washing the film for three times with TBST, ECL color developing solution was applied, and image was captured with Biorad Chemi Doc gel imager. The band gray value was quantified (Image Lab), and protein degradation level was calculated according to the following formulas:
Level of RAS G12D protein expression=(RAS G12D−compound/β-Actin)−compound/(RAS G12D−DMSO/β-Actin−DMSO)
Level of degradation (%)=(1−Rate of RAS G12D protein expression)×100
Symbols of −, +, ++, +++, ++++, +++++ indicate that the degradation level of Ras protein induced by test compounds was 10% or less, 10 to 30%, 30 to 60%, 60 to 70%, 70 to 75%, and greater than 75%, respectively. “NT” indicates not tested.
“NT” indicates not tested.

[3] = tested on: PSN-1 cells (G12R); assay: Cell proliferation study (Cell Titer Glo, 72 hours), PSN-1; assay type: cell-based; details: Homo sapiens, PSN1
Procedure: as §1, §2, §3

[4] = tested on: AsPc-1 cells (G12D); assay: Cell proliferation study (Cell Titer Glo, 72 hours), AsPc-1; assay type: cell-based; details: Homo sapiens, ASPC1
Procedure: as §1, §2, §3

[5] = tested on: GP2D cells (G12D); assay: Cell proliferation study (Cell Titer Glo, 72 hours), GP2D; assay type: cell-based
Procedure: as §1, §2, §3

[6] = tested on: MKN1 cells (WT); assay: Cell proliferation study (Cell Titer Glo, 72 hours), MKN1; assay type: cell-based; details: Homo sapiens, MKN-1
Procedure: as §1, §2, §3

[7] = tested on: NCI-H358 cells (G12C); assay: Cell proliferation study (Cell Titer Glo, 72 hours), NCI-H358; assay type: cell-based; details: Homo sapiens
Procedure: as §1, §2, §3

[8] = Pharmacokinetics in male ICR mice; assay type: in vivo; details: mouse, plasma, IV (3 mg/kg)
[9] = ASPC1, 24 h, Aspc-1 cells, 24 hours, read-out: Rate of protein degradation (%)

T1 sequence (P01116 1-188 isoform P01116-2 G12D): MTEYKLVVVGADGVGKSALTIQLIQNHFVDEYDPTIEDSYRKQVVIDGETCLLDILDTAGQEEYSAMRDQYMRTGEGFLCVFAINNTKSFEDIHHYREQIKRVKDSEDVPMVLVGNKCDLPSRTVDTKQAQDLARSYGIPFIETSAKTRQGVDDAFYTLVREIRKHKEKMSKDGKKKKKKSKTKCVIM

Compound	IC50 [1] [nM]	percent protein degradation at 0.01 µM ([2]; ASPC1, 24 h, 0.010 μM compound, Aspc-1 cells, 24 hours, read-out: Rate of protein degradation (%)) [%]	percent protein degradation at 0.1 µM ([2]; ASPC1, 24 h, 0.1 μM compound, Aspc-1 cells, 24 hours, read-out: Rate of protein degradation (%)) [%]	DC50 [2] [nM]	IC50 [4] [nM]	IC50 [6] [nM]	IC50 [7] [nM]	percent protein degradation at 0.001 µM ([2]; ASPC1, 24 h, 1 nM compound, Aspc-1 cells, 24 hours, read-out: Rate of protein degradation (%)) [%]	percent protein degradation at 0.005 µM [2, 9] [%]	percent protein degradation at 0.05 µM [2, 9] [%]	Dmax ([2]; G12D in Aspc-1 cells) [%]	AUC(0-t) [8] [ng·h/mL]	half-life [8] [h]	DC50 ranking among test compounds ([2]; G12D in Aspc-1 cells)	IC50 [3] [nM]	IC50 [5] [nM]
CCc1c(F)ccc2cc(O)cc(-c3ncc4c(N5CCC[C@@](C)(O)C5)nc(OCC5(CN6CCC(C(=O)N7CCC8(CC7)CC(N7CCC(c9ccc%10c(C%11CCC(=O)NC%11=O)nn(C)c%10c9)CC7)C8)CC6)CC5)nc4c3F)c12 (some centres unmarked) [Compound 85]	2.46	60 to 70	60 to 70	1 to 10	488	405									488	242
CCc1c(F)ccc2cc(O)cc(-c3ncc4c(N5CCC[C@@](C)(O)C5)nc(OCC5(CN6CCC7(CC6)CC(N6CCC(c8ccc9c(c8)CN(C8CCC(=O)NC8=O)C9=O)CC6)C7)CC5)nc4c3F)c12 (some centres unmarked) [Compound 130]	4.45			< 1	12.4		64.8	70 to 75	70 to 75	30 to 60	73					0.219
CCc1c(F)ccc2cc(O)cc(-c3ncc4c(N5CCC[C@@](C)(O)C5)nc(OCC5(CN6CCC7(CC6)CC(N6CCC(c8ccc9c%10c(cccc8%10)C(=O)N9C8CCC(=O)NC8=O)CC6)C7)CC5)nc4c3F)c12 (some centres unmarked) [Compound 137]	0.46			< 1	65.6		438				62	1280	7.97			
CCc1c(F)ccc2cc(O)cc(-c3ncc4c(N5CCC[C@]6(CCO6)C5)nc(OCC5(CN6CCC7(CC6)CC(N6CCC(c8ccc9c%10c(cccc8%10)C(=O)N9C8CCC(=O)NC8=O)CC6)C7)CC5)nc4c3F)c12 (some centres unmarked) [Compound 179a]	18.5			< 1	57.8		126		> 75	> 75	70			lowest DC50 value		0.123
C[C@@]1(O)CCCN(c2nc(OCC3(CN4CCC5(CC4)CC(N4CCC(c6ccc7c8c(cccc68)C(=O)N7C6CCC(=O)NC6=O)CC4)C5)CC3)nc3c(F)c(-c4cc(N)cc(Cl)c4C(F)(F)F)ncc23)C1 (some centres unmarked) [Compound 200]	45.8				> 1000		> 1000		70 to 75	> 75						0.991
CCc1c(F)ccc2cc(O)cc(-c3ncc4c(N5CCC[C@]6(CCO6)C5)nc(OCC5(CN6CCC7(CC6)CC(N6CCC(c8ccc9c(C%10CCC(=O)NC%10=O)nn(C)c9c8)CC6)C7)CC5)nc4c3F)c12 (some centres unmarked) [Compound 201]	2.09			< 1	4.98		9.92		> 75	> 75	80					0.256
CCc1c(F)ccc2cc(O)cc(-c3ncc4c(N5CCC[C@]6(CCO6)C5)nc(OCC5(CN6CCC7(CC6)CC(N6CCC(c8cc9c(cc8F)c(C8CCC(=O)NC8=O)nn9C)CC6)C7)CC5)nc4c3F)c12 (some centres unmarked) [Compound 205]	0.309			< 1	2.32		6.24		60 to 70	> 75	78					0.289
CCc1c(F)ccc2cc(O)cc(-c3ncc4c(N5CCC[C@]6(CCO6)C5)nc(OCC5(CN6CC(C(=O)N7CCC(c8ccc9c(C%10CCC(=O)NC%10=O)nn(C)c9c8)CC7)C6)CC5)nc4c3F)c12 (some centres unmarked) [Compound 207]					198				30 to 60	60 to 70						3.53

More lines, main results first:

IC50 [1] [nM]	percent protein degradation at 0.01 µM ([2]; ASPC1, 24 h, 0.010 μM compound, Aspc-1 cells, 24 hours, read-out: Rate of protein degradation (%)) [%]	percent protein degradation at 0.1 µM ([2]; ASPC1, 24 h, 0.1 μM compound, Aspc-1 cells, 24 hours, read-out: Rate of protein degradation (%)) [%]	DC50 [2] [nM]	IC50 [4] [nM]	IC50 [6] [nM]	IC50 [7] [nM]	percent protein degradation at 0.001 µM ([2]; ASPC1, 24 h, 1 nM compound, Aspc-1 cells, 24 hours, read-out: Rate of protein degradation (%)) [%]	percent protein degradation at 0.005 µM [2, 9] [%]	percent protein degradation at 0.05 µM [2, 9] [%]	Dmax ([2]; G12D in Aspc-1 cells) [%]	AUC(0-t) [8] [ng·h/mL]	half-life [8] [h]	DC50 ranking among test compounds ([2]; G12D in Aspc-1 cells)	Compound	IC50 [3] [nM]	IC50 [5] [nM]
4.4			11 to 50	43.2		17.9		30 to 60	70 to 75	65				CCc1c(F)ccc2cc(O)cc(-c3ncc4c(N5CCC[C@]6(CCO6)C5)nc(OCC5(CN6CCC7(CC6)CC(N6CCC(c8ccc9c(=O)n(C%10CCC(=O)NC%10=O)ccc9c8)CC6)C7)CC5)nc4c3F)c12 (some centres unmarked) [Compound 234]		
0.8			1 to 10	63.5		10.3		30 to 60	> 75	71				CCc1c(F)ccc2cc(O)cc(-c3ncc4c(N5CCC[C@@](C)(O)C5)nc(OCC5(CN6CCC7(CC6)CC(N6CCC(c8cc9c(cc8F)c(N8CCC(=O)NC8=O)nn9C)CC6)C7)CC5)nc4c3F)c12 [Compound 235]		
								10 to 30	10 to 30					CCc1c(F)ccc2cc(O)cc(-c3ncc4c(N5CCC[C@]6(CCO6)C5)nc(OCC5(CN6CCC(CN7Cc8cc9c(cc8C7)C(=O)N(C7CCC(=O)NC7=O)C9=O)CC6)CC5)nc4c3F)c12 (some centres unmarked) [Compound 237]		
			11 to 50					> 75	30 to 60	73				CCc1cccc2cc(O)cc(-c3ncc4c(N5CCC[C@]6(CCO6)C5)nc(OCC5(CN6CCC7(CC6)CC(N6CCC(c8cc9c(cc8F)c(N8CCC(=O)NC8=O)nn9C)CC6)C7)CC5)nc4c3F)c12 [Compound 238]		
			11 to 50					60 to 70	30 to 60	71				Cn1nc(N2CCC(=O)NC2=O)c2cc(F)c(C3CCN(C4CC5(CCN(CC6(COc7nc(N8CCC[C@]9(CCO9)C8)c8cnc(-c9cc(O)cc%10ccc(F)c(F)c9%10)c(F)c8n7)CC6)CC5)C4)CC3)cc21 [Compound 241]		
			1 to 10					30 to 60	> 75	74				CCc1c(F)ccc2cc(O)cc(-c3ncc4c(N5CCC[C@@](C)(O)C5)nc(OCC5(CN6CCC7(CC6)CC(N6CCC(c8cc9c(cc8F)c(N8CCC(=O)NC8=O)nn9C)C(F)(F)C6)C7)CC5)nc4c3F)c12 (some centres unmarked) [Compound 243]		
								30 to 60	30 to 60					CCc1c(F)ccc2cc(O)cc(-c3ncc4c(N5CCC[C@]6(CCO6)C5)nc(OCC5(CN6CCC(CN7CCC(c8ccc9ccn(C%10CCC(=O)NC%10=O)c(=O)c9c8)CC7)CC6)CC5)nc4c3F)c12 (some centres unmarked) [Compound 244]		
